Entries after “also recorded” stand apart in the source; their conditions may differ.
Experiments:
[1] = tested on: suture-induced neovascularization in the rabbit cornea; assay: Rabbit cornea suture model of neovascularization; format: in vivo
Procedure: Topical compositions comprising 0.2% or 0.05% nintedanib in 10% 2-hydroxypropyl beta cyclodextrin in phosphate buffer solution, pH 7.4 were prepared. Thirty female Zealand White rabbits were used to perform the study. Briefly, five sutures were placed in the upper cornea of the right eye of each animal on Day 1 to induce neovascularization. The animals were treated in both eyes with either drug, vehicle or saline as described in Table 1. [table] During the study, the animals were closely observed for various ocular indications as well as general physical conditions including body weight. Ocular images were taken on days 7, 10, 12, 14, 21, 28 for analysis of hyperemia. NIH ImageJ® software was used to analyze the ocular images. Each image was opened in ImageJ®, the scale was calibrated using the ruler in the photograph and the neovascularized area on the cornea near the suture was selected by the selection tool. The area in mm^2 was calculated by measurement tool in the software, recorded in excel and the image was captured and saved. […] The results were plotted as histograms of average with standard deviation for easy comparison.

[2] = tested on: corneal graft rejection (C57BL/6 cornea transplanted onto BALB/c mice); assay: Mouse corneal graft rejection model; format: in vivo; details: nintedanib 0.2% solution TID for 8 weeks vs vehicle solution
Excerpt: In this example, cornea of C57BL/6 mice would be transplanted onto BALB/c mice cornea as described (Sonoda et al. Invest Ophthalmol Vis Sci. 1995 February; 36(2):427-34; Invest Ophthalmol Vis Sci. 2000 March; 41(3):790-8; Yamagami et al. Invest Ophthalmol Vis Sci. 2001 May; 42(6): 1293-8). The suture would be removed on day 7 after transplant. The mice would be divided into two groups. Group 1 would be treated with the nintedanib 0.2% solution and group 2 with the vehicle solution. Treatment would start immediately after transplant, TID for 8 weeks. The corneal opacity and graft rejection will be assessed weekly for 8 weeks as described.

In the case of `COC(=O)c1ccc2c(c1)NC(=O)/C2=C(\Nc1ccc(N(C)C(=O)CN2CCN(C)CC2)cc1)c1ccccc1` [nintedanib, Methyl (3Z)-3-{[(4-{methyl[(4-methylpiperazin-1-yl)acetyl]amino}phenyl)amino] (phenyl)methylidene}-2-oxo-2,3-dihydro-1H-indole-6-carboxylate], the “efficacy of TID dosing compared with BID dosing” value ([1]; rabbit cornea suture model, topical ocular, TID vs BID) is reported as “higher efficacy”, the “efficacy of 0.2% nintedanib compared with 0.05% nintedanib” value ([1]; rabbit cornea suture model, topical ocular, higher dose 0.2% vs 0.05%) is reported as “better efficacy” and the “effect on suture-induced corneal neovascularization (area of cornea neovascularization)” value ([1]; rabbit, topical ocular 0.2% or 0.05% solution BID or TID days 8 to 15, vs vehicle, day 12 and day 14 after suture) is reported as “reduced cornea neovascularization; also recorded: marked inhibitory effect; also recorded: strongly inhibited corneal neovascularization”. For the same compound, the “survival of the graft (rejection rate)” value [2] was “significantly increased survival of the graft”.

From patent US12491183B2, “Compositions and methods of using nintedanib for treating ocular diseases with abnormal neovascularization” (ADS Therapeutics LLC, priority 2016, dated 2025)
